From patent publication US7550588B2, “Homotropanes with central nervous system activity” (The Research Foundation of State University of New York, priority 2006, dated 2009)
Where two headings read alike, the source gives them in different places.

What was measured:
[1] = biological target: T1, serotonin transporter (SERT) (Rattus norvegicus, UniProt P31652); experiment: Displacement of [3H]paroxetine binding at 5-HT transport sites in rat frontal cortex membranes; conditions: for Ratio SERT/DAT: SERT binding value divided by DAT binding value; for binding affinity at SERT (in words): summary of Table 1
T1 construct: striatum and frontal cortex dissected from frozen Sprague-Dawley rat brains (Pel-Freez, Rogers, Ark.); tissue Pel-Freez, Rogers, Ark; host or cells: rat frontal cortex membranes (frozen Sprague-Dawley rat brains)

[2] = biological target: T2, Dopamine transporter (DAT) (Rattus norvegicus, UniProt P23977); experiment: Displacement of [125I]RTI-55 binding at dopamine transport sites in rat striatum membranes; conditions: for binding affinity at DAT (in words): summary of Table 1
T2 construct: striatum and frontal cortex dissected from frozen Sprague-Dawley rat brains (Pel-Freez, Rogers, Ark.); tissue Pel-Freez, Rogers, Ark; host or cells: rat striatum membranes (frozen Sprague-Dawley rat brains)

[3] = [3H]paroxetine 0.4 nM, rat frontal cortex membranes, Cheng-Prusoff, mean ± S.E.M., tested as racemates, read-out: Binding (nM) SERT (converted)
[4] = [125I]RTI-55 10 pM, rat striatum membranes, mean ± S.E.M., at least three experiments, tested as racemates, read-out: Binding (nM) DAT (converted)

T1 sequence (P31652 whole entry): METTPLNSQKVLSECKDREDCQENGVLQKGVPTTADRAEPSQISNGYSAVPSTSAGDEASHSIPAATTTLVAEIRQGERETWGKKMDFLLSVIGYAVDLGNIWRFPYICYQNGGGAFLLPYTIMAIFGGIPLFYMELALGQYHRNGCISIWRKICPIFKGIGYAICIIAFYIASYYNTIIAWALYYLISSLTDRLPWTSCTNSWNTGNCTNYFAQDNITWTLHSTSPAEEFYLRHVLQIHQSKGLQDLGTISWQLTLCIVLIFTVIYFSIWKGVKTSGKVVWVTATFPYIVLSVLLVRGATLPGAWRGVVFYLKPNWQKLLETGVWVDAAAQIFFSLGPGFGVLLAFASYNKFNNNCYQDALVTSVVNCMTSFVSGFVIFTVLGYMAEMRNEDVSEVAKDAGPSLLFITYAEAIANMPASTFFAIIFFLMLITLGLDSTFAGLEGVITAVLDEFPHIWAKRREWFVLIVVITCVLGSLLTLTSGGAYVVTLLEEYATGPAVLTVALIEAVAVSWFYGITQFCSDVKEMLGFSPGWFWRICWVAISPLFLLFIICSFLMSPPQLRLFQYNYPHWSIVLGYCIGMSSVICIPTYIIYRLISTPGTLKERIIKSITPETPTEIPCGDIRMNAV
T2 sequence (P23977 whole entry): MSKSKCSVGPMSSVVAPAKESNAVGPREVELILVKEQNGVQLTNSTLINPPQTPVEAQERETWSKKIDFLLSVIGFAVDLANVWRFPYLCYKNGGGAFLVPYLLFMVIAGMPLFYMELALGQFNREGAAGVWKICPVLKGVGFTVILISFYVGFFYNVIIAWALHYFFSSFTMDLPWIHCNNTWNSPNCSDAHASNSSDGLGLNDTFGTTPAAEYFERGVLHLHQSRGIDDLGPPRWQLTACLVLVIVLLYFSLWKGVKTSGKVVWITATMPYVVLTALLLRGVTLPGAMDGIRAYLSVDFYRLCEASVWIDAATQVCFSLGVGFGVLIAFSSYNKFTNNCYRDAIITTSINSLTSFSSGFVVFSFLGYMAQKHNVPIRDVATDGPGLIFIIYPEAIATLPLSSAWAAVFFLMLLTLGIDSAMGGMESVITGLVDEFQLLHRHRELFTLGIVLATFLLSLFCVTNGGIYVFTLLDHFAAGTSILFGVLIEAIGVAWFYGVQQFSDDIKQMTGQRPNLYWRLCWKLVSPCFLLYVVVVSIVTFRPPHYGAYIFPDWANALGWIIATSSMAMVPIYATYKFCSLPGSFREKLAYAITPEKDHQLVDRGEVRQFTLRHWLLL

| Structure (SMILES) | Ratio SERT/DAT [1] | Ki [1, 3] [nM] | binding affinity at SERT (in words) [1] | IC50 [2, 4] [nM] | binding affinity at DAT (in words) [2] | Ki [1] [nM] | IC50 [2] [nM] | melting point [°C] | selectivity for SERT ([1]; SERT versus DAT binding) |
| --- | --- | --- | --- | --- | --- | --- | --- | --- | --- |
| C=C(C)c1ccc([C@@H]2C[C@@H]3CC[C@@H](NC3)[C@H]2C(=O)CC)cc1 (racemic) [18b, 4β-Propionyl-3α-(4-isopropenylphenyl)-6-azabicyclo[3.2.2]nonane] | 0.02 | 6.48 | relatively strong binding | 370 | relatively strong binding |  |  |  |  |
| CCC(=O)C1C(c2ccc(C)cc2)C(c2ccccc2)C2CCC1N(C)C2 (stereo not drawn) [12h, 6-Methyl-2α-phenyl-4β-propionyl-3β-(p-tolyl)-6-azabicyclo[3.2.2]nonane] |  |  |  |  |  | > 2500 | 4100 | 172 to 173 |  |
| CCC(=O)C1C(c2ccc(C)cc2)C(C)C2(C)CCC1N(C)C2 (stereo not drawn) [12i, 1,2α,6-Trimethyl-4β-propionyl-3β-(p-tolyl)-6-azabicyclo[3.2.2]nonane] |  |  |  |  |  | > 2500 | 2140 |  |  |
| CCC(=O)C1C(c2ccc(Cl)cc2)CC2CCC1N(C)C2 (stereo not drawn) [12d, 3β-(4-Chlorophenyl)-6-methyl-4β-propionyl-6-azabicyclo[3.2.2]nonane] | 23 |  |  |  |  | 860 | 38.1 |  |  |
| CCC(=O)[C@H]1[C@@H](c2ccc(C)cc2)[C@H](C)[C@@H]2CC[C@H]1N(C)C2 (racemic) [12g, 2α,6-Dimethyl-4β-propionyl-3β-(p-tolyl)-6-azabicyclo[3.2.2]nonane] |  |  |  |  |  | > 2500 | 1830 |  |  |
| C=C(C)c1ccc([C@H]2C[C@@H]3CC[C@H]([C@H]2C(=O)CC)N(C)C3)cc1 (racemic) [12f, 6-Methyl-4β-propionyl-3β-(4-isopropenylphenyl)-6-azabicyclo[3.2.2]nonane] | 0.03 |  |  |  |  | 32.8 | 880 |  | most selective for SERT |
| CCC(=O)[C@@H]1C2CCC(C[C@H]1c1ccc(C)cc1)CN2C (relative stereo) [13a, 6-Methyl-4α-propionyl-3β-(p-tolyl)-6-azabicyclo[3.2.2]nonane] |  | > 2500 | very low binding affinity | 1160 ± 240 | very low binding affinity |  |  |  |  |
| CCC(=O)[C@@H]1C2CCC(C[C@@H]1c1ccc(C)cc1)CN2C (relative stereo) [12a, 6-Methyl-4β-propionyl-3β-(p-tolyl)-6-azabicyclo[3.2.2]nonane] | 19 |  |  |  |  | 2230 ± 410 | 117 ± 13 |  |  |
| CCC(=O)[C@@H]1C2CCC(CN2)C[C@H]1c1ccc(C)cc1 (relative stereo) [18a, 4β-Propionyl-3α-(p-tolyl)-6-azabicyclo[3.2.2]nonane] | 2.5 |  | relatively strong binding |  | relatively strong binding | 469 ± 32 | 187 ± 55 |  |  |
| CCC(=O)[C@@H]1C2CCC(C[C@H]1c1ccc3ccccc3c1)CN2C (relative stereo) [13b, 6-Methyl-3β-(2-naphthyl)-4α-propionyl-6-azabicyclo[3.2.2]nonane] | — 0.3 |  |  |  |  | 6.2 | 20.8 |  |  |
| CCC(=O)C1C2CCC(CC1c1ccc(C)cc1)N(C)C2 (stereo not drawn) [compound 23, 6-Methyl-2α-propionyl-3β-(p-tolyl)-6-azabicyclo[3.2.2]nonane] |  |  |  | 4700 ± 900 | very low binding affinity |  |  |  |  |
| C=Cc1ccc(C2CC3CCC(C2C(=O)CC)N(C)C3)cc1 (stereo not drawn) [12e, 3β-(4-Ethenylphenyl)-6-methyl-4β-propionyl-6-azabicyclo[3.2.2]nonane] | 1.9 |  |  |  |  | 116 | 75 |  |  |
| CCC(=O)[C@@H]1C2CCC(C[C@@H]1c1ccc3ccccc3c1)CN2C (relative stereo) [12b, 6-Methyl-3β-(2-naphthyl)-4β-propionyl-6-azabicyclo[3.2.2]nonane] | 4.8 |  | strongest binding affinity |  | strongest binding affinity | 13.4 ± 0.0138 | 2.8 |  |  |
| CCC(=O)C1C(c2ccc(C)cc2)CC2CCC1N(C)C2=O (stereo not drawn) [compound 27, 6-Methyl-4β-propionyl-3β-(p-tolyl)-6-azabicyclo[3.2.2]nonan-7-one] |  | > 2500 | very low binding affinity | 7000 | very low binding affinity |  |  |  |  |
| CCC(=O)[C@@H]1C2CCC(CN2)C[C@@H]1c1ccc(C)cc1 (relative stereo) [compound 19, 4β-Propionyl-3β-(p-tolyl)-6-azabicyclo [3.2.2]nonane] | 6.3 |  |  |  |  | 156 ± 26 | 24.9 ± 5.6 |  |  |
| CCC(=O)[C@H]1[C@@H](c2ccc(C(C)C)cc2)C[C@@H]2CC[C@H]1N(C)C2 (racemic) [12c, 3β-(4-Isopropylphenyl)-6-methyl-4β-propionyl-6-azabicyclo[3.2.2]nonane] | 0.23 |  |  |  |  | 1760 | 7500 |  |  |
| CCC(=O)C1C(c2ccc(C)cc2)C(c2ccccc2)C2(C)CCC1N(C)C2 (stereo not drawn) [12j, 1,6-Dimethyl-2α-phenyl-4β-propionyl-3β-(p-tolyl)-6-azabicyclo[3.2.2]-nonane] |  |  |  |  |  | > 2500 | 5600 | 141 to 144 |  |
